Assay results published in patent US11339128B2 (Firmenich Incorporated, priority 2014, dated 2022).

Target: T1, T1R2/T1R3 taste receptor (Homo sapiens, UniProt Q7RTX0+Q8TE23)
T1 sequence (Q8TE23 20-839): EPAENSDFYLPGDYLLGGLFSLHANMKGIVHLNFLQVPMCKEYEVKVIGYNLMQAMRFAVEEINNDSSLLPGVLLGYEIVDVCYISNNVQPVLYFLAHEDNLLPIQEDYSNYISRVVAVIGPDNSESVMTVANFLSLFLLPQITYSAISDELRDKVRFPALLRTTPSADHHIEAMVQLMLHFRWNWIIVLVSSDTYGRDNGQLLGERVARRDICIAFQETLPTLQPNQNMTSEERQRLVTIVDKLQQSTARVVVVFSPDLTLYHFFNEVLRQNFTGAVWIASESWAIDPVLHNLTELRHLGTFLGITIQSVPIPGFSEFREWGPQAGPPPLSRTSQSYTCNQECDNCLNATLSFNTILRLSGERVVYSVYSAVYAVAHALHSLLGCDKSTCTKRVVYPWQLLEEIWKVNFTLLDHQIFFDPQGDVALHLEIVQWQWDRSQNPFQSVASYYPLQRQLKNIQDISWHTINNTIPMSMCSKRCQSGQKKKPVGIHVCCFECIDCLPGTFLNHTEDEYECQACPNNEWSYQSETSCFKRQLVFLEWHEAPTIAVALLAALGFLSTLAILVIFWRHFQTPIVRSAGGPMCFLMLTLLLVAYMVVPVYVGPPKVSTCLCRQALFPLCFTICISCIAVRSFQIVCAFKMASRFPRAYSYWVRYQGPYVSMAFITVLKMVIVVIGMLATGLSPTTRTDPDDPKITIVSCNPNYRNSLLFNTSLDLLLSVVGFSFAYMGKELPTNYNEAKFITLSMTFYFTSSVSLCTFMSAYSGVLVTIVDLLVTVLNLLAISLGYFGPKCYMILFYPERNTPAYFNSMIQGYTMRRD
T1 sequence (Q7RTX0 21-852): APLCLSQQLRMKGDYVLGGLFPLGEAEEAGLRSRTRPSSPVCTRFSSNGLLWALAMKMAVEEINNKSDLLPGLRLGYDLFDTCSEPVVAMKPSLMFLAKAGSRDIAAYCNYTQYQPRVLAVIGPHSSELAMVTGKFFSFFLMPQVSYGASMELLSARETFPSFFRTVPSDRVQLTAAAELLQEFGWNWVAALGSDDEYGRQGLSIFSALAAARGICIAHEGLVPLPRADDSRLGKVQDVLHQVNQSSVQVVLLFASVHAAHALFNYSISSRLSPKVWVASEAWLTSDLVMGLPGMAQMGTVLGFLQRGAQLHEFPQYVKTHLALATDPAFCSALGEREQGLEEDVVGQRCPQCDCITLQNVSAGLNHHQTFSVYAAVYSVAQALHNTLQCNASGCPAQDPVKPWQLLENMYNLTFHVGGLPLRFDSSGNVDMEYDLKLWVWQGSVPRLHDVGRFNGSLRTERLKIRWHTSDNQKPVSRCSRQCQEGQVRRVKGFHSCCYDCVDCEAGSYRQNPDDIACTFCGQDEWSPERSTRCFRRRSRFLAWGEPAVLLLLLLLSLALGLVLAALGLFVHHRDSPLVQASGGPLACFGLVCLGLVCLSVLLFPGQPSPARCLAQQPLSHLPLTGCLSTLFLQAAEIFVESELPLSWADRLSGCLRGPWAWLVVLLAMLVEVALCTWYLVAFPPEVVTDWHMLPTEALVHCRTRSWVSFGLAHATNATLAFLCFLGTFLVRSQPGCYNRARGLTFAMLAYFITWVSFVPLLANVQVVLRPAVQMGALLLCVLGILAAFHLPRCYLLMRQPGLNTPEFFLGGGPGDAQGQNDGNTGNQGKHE
Experiment: Receptor-based assay: sweetener EC50 enhancement ratio with and without test compound
Format: cell-based
Conditions: for Sucrose Enhancement EC50 Ratio: sweetener sucrose; for Fructose Enhancement EC50 Ratio: sweetener fructose; for Sucralose Enhancement EC50 Ratio: sweetener sucralose
Protocol: Potencies (EC50 values) for the sweeteners sucrose, sucralose, and fructose were measured against the T1R2/T1R3 taste receptor. EC50 was determined using the sweetener alone and in the presence of 1 μM, 3 μM, 10 μM, or 50 μM of test compound. EC50 ratios were calculated by the ratio of potency with and without the test compound. An “A” value indicates an enhancement ratio of greater than 1 and less than 10. A “B” value indicates an enhancement ratio from 10 to 20. A “C” value indicates an enhancement ratio greater than 20.

| SMILES | Sucrose Enhancement EC50 Ratio (1 μM test compound) | Sucrose Enhancement EC50 Ratio (3 μM test compound) | Fructose Enhancement EC50 Ratio (10 μM test compound) | Sucrose Enhancement EC50 Ratio (10 μM test compound) | Sucralose Enhancement EC50 Ratio (3 μM test compound) | Sucralose Enhancement EC50 Ratio (10 μM test compound) | Fructose Enhancement EC50 Ratio (50 μM test compound) |
| --- | --- | --- | --- | --- | --- | --- | --- |
| Cc1nc2cccc(O[C@H]3CC[C@H](NC(=O)COCCO)CC3)c2c(N)c1C(=O)O [Compound 334] | A (an enhancement ratio of greater than 1 and less than 10) | A (an enhancement ratio of greater than 1 and less than 10) | A (an enhancement ratio of greater than 1 and less than 10) | C (an enhancement ratio greater than 20) |  |  |  |
| CCCCOCC(=O)N[C@H]1CC[C@H](Oc2cccc3nc(C)c(C(=O)O)c(N)c23)CC1 [Compound 335] | B (an enhancement ratio from 10 to 20) | C (an enhancement ratio greater than 20) |  |  | C (an enhancement ratio greater than 20) |  |  |
| COCCOCC(=O)N[C@H]1CC[C@H](Oc2cccc3nc(C)c(C(=O)O)c(N)c23)CC1 [Compound 336] | A (an enhancement ratio of greater than 1 and less than 10) | C (an enhancement ratio greater than 20) |  |  | B (an enhancement ratio from 10 to 20) |  |  |
| Cc1nc2cccc(O[C@H]3CC[C@H](NC(=O)COCC4CCCCC4)CC3)c2c(N)c1C(=O)O [Compound 337] | A (an enhancement ratio of greater than 1 and less than 10) | C (an enhancement ratio greater than 20) |  |  |  |  |  |
| Cc1nc2cccc(O[C@H]3CC[C@H](NC(=O)COCC4CCCC4)CC3)c2c(N)c1C(=O)O [Compound 338] | A (an enhancement ratio of greater than 1 and less than 10) |  |  |  |  |  |  |
| Cc1nc2cccc(O[C@H]3CC[C@H](NC(=O)COCC4CCOCC4)CC3)c2c(N)c1C(=O)O [Compound 339] | A (an enhancement ratio of greater than 1 and less than 10) | B (an enhancement ratio from 10 to 20) |  |  |  |  |  |
| Cc1nc2cccc(O[C@H]3CC[C@H](NC(=O)COCCC(C)C)CC3)c2c(N)c1C(=O)O [Compound 340] | B (an enhancement ratio from 10 to 20) | B (an enhancement ratio from 10 to 20) |  |  | A (an enhancement ratio of greater than 1 and less than 10) |  |  |
| CCC(CC)OCC(=O)N[C@H]1CC[C@H](Oc2cccc3nc(C)c(C(=O)O)c(N)c23)CC1 [Compound 341] | A (an enhancement ratio of greater than 1 and less than 10) | B (an enhancement ratio from 10 to 20) |  |  | A (an enhancement ratio of greater than 1 and less than 10) |  |  |
| CCNCC(=O)N[C@H]1CC[C@H](Oc2cccc3nc(C)c(C(=O)O)c(N)c23)CC1.Cl [Compound 400, 4-Amino-5-((trans-4-(2-(ethylamino)acetamido)cyclohexyl)oxy)-2-methyl quinolone-3-carboxylic acid (HCl)] | A (an enhancement ratio of greater than 1 and less than 10) | A (an enhancement ratio of greater than 1 and less than 10) | A (an enhancement ratio of greater than 1 and less than 10) | A (an enhancement ratio of greater than 1 and less than 10) |  | A (an enhancement ratio of greater than 1 and less than 10) | A (an enhancement ratio of greater than 1 and less than 10) |
| Cc1nc2cccc(O[C@H]3CC[C@H](NC(=O)CN)CC3)c2c(N)c1C(=O)O [Compound 401] | A (an enhancement ratio of greater than 1 and less than 10) | A (an enhancement ratio of greater than 1 and less than 10) | A (an enhancement ratio of greater than 1 and less than 10) | A (an enhancement ratio of greater than 1 and less than 10) |  | A (an enhancement ratio of greater than 1 and less than 10) |  |
| CNCC(=O)N[C@H]1CC[C@H](Oc2cccc3nc(C)c(C(=O)O)c(N)c23)CC1 [Compound 402] | A (an enhancement ratio of greater than 1 and less than 10) | A (an enhancement ratio of greater than 1 and less than 10) | A (an enhancement ratio of greater than 1 and less than 10) | B (an enhancement ratio from 10 to 20) |  | A (an enhancement ratio of greater than 1 and less than 10) |  |
| CN[C@@H](C)C(=O)N[C@H]1CC[C@H](Oc2cccc3nc(C)c(C(=O)O)c(N)c23)CC1.Cl [Compound 500] | A (an enhancement ratio of greater than 1 and less than 10) | A (an enhancement ratio of greater than 1 and less than 10) |  | A (an enhancement ratio of greater than 1 and less than 10) |  | A (an enhancement ratio of greater than 1 and less than 10) | A (an enhancement ratio of greater than 1 and less than 10) |
| CNC(C)(C)C(=O)N[C@H]1CC[C@H](Oc2cccc3nc(C)c(C(=O)O)c(N)c23)CC1 [Compound 501] | A (an enhancement ratio of greater than 1 and less than 10) | A (an enhancement ratio of greater than 1 and less than 10) | A (an enhancement ratio of greater than 1 and less than 10) | A (an enhancement ratio of greater than 1 and less than 10) |  | B (an enhancement ratio from 10 to 20) | A (an enhancement ratio of greater than 1 and less than 10) |
| CN[C@@H](CO)C(=O)N[C@H]1CC[C@H](Oc2cccc3nc(C)c(C(=O)O)c(N)c23)CC1 [Compound 502] | A (an enhancement ratio of greater than 1 and less than 10) | A (an enhancement ratio of greater than 1 and less than 10) | A (an enhancement ratio of greater than 1 and less than 10) | A (an enhancement ratio of greater than 1 and less than 10) |  | A (an enhancement ratio of greater than 1 and less than 10) | A (an enhancement ratio of greater than 1 and less than 10) |
| CN[C@H](C(=O)N[C@H]1CC[C@H](Oc2cccc3nc(C)c(C(=O)O)c(N)c23)CC1)C(C)C [Compound 503] | A (an enhancement ratio of greater than 1 and less than 10) | A (an enhancement ratio of greater than 1 and less than 10) | A (an enhancement ratio of greater than 1 and less than 10) | A (an enhancement ratio of greater than 1 and less than 10) |  | B (an enhancement ratio from 10 to 20) | A (an enhancement ratio of greater than 1 and less than 10) |
| Cc1nc2cccc(O[C@H]3CC[C@H](NC(=O)[C@@H]4CCCN4)CC3)c2c(N)c1C(=O)O [Compound 504] | A (an enhancement ratio of greater than 1 and less than 10) | A (an enhancement ratio of greater than 1 and less than 10) |  |  |  |  |  |
